# Data published in PMC9688344, “[^225Ac]Ac-SibuDAB for Targeted Alpha Therapy of Prostate Cancer: Preclinical Evaluation and Comparison with [^225Ac]Ac-PSMA-617” (Cancers, 2022).
# Test system: immunocompetent FVB mice
# Assay: Tolerability study in immunocompetent mice
# Type: in vivo
# Text: Five- to six-week-old immunocompetent, female FVB mice were purchased from Charles River Laboratories (Sulzfeld, Germany). After an acclimatization period of at least 7 days, the mice (n = 5 per group) were intravenously injected with 30 kBq [^225Ac]Ac-SibuDAB or 30 kBq [^225Ac]Ac-PSMA-617 and additional mice (n = 7 per group) remained untreated as controls. Mice were monitored by measuring their body mass and potential signs of pain or unease three times a week (Supplementary Material: Section S7). The mice were euthanized on Day 10, Day 28 or on Day 56, respectively, and variable parameters were assessed from blood and tissue samples.
# Hematological analysis was performed using blood samples taken by cardiac puncture immediately after euthanasia. Blood and bone marrow smears were prepared and stained using the Pappenheim protocol. The assessment was carried out by a board-certified veterinary anatomic pathologist (AnaPath Services GmbH, Liestal, Switzerland). Blood plasma parameters were determined in plasma after centrifugation of blood samples obtained shortly before euthanasia (Supplementary Material: Section S7).
# Tissue sections of formalin-fixed paraffin-embedded (FFPE) spleen, salivary glands and kidneys were prepared and stained with hematoxylin and eosin (H&E) by AnaPath Services GmbH (Liestal, Switzerland). The tissues were analyzed by a board certified veterinary pathologist using a pre-defined scoring system (Supplementary Material: Section S7). […]
# The percentage of radioligand bound to mouse or human plasma (A bound) was plotted against the molar ratios of MSA/HSA to radioligand and fitted with a nonlinear regression curve (specific binding with Hill slope, Bmax set to 100%) using GraphPad Prism software (version 8) to obtain the half maximum binding (B 50).
# Results: The results are reported in the main article.
# Purpose: A tolerability study with normal, immunocompetent FVB mice was con-ducted in order to assess potential side effects to the bone marrow, spleen, salivary glands and kidneys after the application of high activities of the 225Ac-labeled PSMA radioligands.
# Methods: Monitoring Body Mass and Signs of Unease: Mice were monitored by meas-uring their body mass (BM) three times a week. The body masses were expressed as the relative body mass, defined as [BMx/BM0], where BMx is the body mass in grams on a given Day x and BM0 is the body mass in grams on Day 0. Endpoint criteria, defined as (i) >15% loss in body mass, (ii) signs of unease and pain or a combination thereof based on a scoring system, were not reached in this stu dy.
# Hematology: Blood cell counts were determined in blood samples taken by cardiac puncture immediately after euthanasia and collected in EDTA tubes (Microvette® 100 K3 EDTA, Sarstedt, Germany). Leukocyte, lymphocyte, erythrocyte and thrombocyte counts as well as hemoglobin and hematocrit values were determined using a hematology ana-lyzer (VetScan HM5, Abaxis, United States). Blood smears were prepared on glass slides with cardiac blood. The bone marrow was collected from the femur, diluted in FCS/H2O (2:1 v/v) and smeared onto microscopy slides using a paintbrush. The slides were stained with a May Grünwald solution and subsequently with diluted Giemsa solution using the Pappenheim method and covered with coverslips using mounting medium (Pertex).
# The assessment of potential morphological ch anges of the blood cells and counting of the subgroups of leukocytes was performed by a board-certified veterinary pathologist (Ana-Path Services GmbH, Liestal, Switzerland).
# Histopathological Analysis: Spleen, salivary glands and kidneys were formalin-fixed and paraffin-embedded. Tissue sections were stained with hematoxylin & eosin (H&E) […]
# Blood Plasma Parameters: Blood plasma parameters were determined in plasma ob-tained from centrifuged retrobulbar blood samples collected in lithium-heparin tubes (Mi-crovette® 200 LH, SARSTEDT). The concentrations of blood urea nitrogen (BUN), alkaline […]
structure (smiles),measurement,setting,value
CC(C)Cc1ccc(C(C)C(=O)NC(CCN)C(=O)NCCCCC(NC(=O)CN2CCN(CC(=O)[O-])CCN(CC(=O)[O-])CCN(CC(=O)[O-])CC2)C(=O)NCC2CCC(C(=O)NC(Cc3ccc4ccccc4c3)C(=O)NCCCCC(NC(=O)NC(CCC(=O)O)C(=O)O)C(=O)O)CC2)cc1.[225Ac+3] (centres unmarked) [[^225Ac]Ac-SibuDAB],Tolerability (body mass),"30 kBq per mouse, until Day 56",well tolerated
same,"Kidneys: Hyperplasia/hypertrophy, tubular, incidence","Day 10, 30 kBq",0
same,"Kidneys: Hyperplasia/hypertrophy, tubular, score average","Day 10, 30 kBq",0.0
same,"Kidneys: Hypertrophy/hyperplasia, tubular with ectasia, incidence","Day 10, 30 kBq",0
same,"Kidneys: Hypertrophy/hyperplasia, tubular with ectasia, score average","Day 10, 30 kBq",0.0
same,"Kidneys: Inflammatory cells, interstitium, incidence","Day 10, 30 kBq",0
same,"Kidneys: Inflammatory cells, interstitium, score average","Day 10, 30 kBq",0.0
same,"Kidneys: Inflammatory cells, pelvis, incidence","Day 10, 30 kBq",0
same,"Kidneys: Inflammatory cells, pelvis, score average","Day 10, 30 kBq",0.0
same,"Kidneys: Mineralization, papilla, incidence","Day 10, 30 kBq",0
same,"Kidneys: Mineralization, papilla, score average","Day 10, 30 kBq",0.0
same,"Kidneys: Tubular basophilia, incidence","Day 10, 30 kBq",0
same,"Kidneys: Tubular basophilia, score average","Day 10, 30 kBq",0.0
same,"Salivary glands: Ductal hyperplasia with inflammatory cells, incidence","Day 10, 30 kBq",0
same,"Salivary glands: Ductal hyperplasia with inflammatory cells, score average","Day 10, 30 kBq",0.0
same,"Salivary glands: Hypertrophy acinar, sublingual, incidence","Day 10, 30 kBq",0
same,"Salivary glands: Hypertrophy acinar, sublingual, score average","Day 10, 30 kBq",0.0
same,"Salivary glands: Mononuclear cell foci, incidence","Day 10, 30 kBq",1
same,"Salivary glands: Mononuclear cell foci, score average","Day 10, 30 kBq",1.0
same,"Salivary glands: Necrosis, multifocal, serous acinar cells, incidence","Day 10, 30 kBq",two out of five
same,"Salivary glands: Necrosis, multifocal, serous acinar cells, score average","Day 10, 30 kBq",1.0
same,"Salivary glands: Vacuolation, incidence","Day 10, 30 kBq",1
same,"Salivary glands: Vacuolation, score average","Day 10, 30 kBq",1.0
same,"Spleen: Extramedullary hematopoiesis, incidence","Day 10, 30 kBq",5
same,"Spleen: Extramedullary hematopoiesis, score average","Day 10, 30 kBq",1.2
same,"Spleen: Hyperplasia, lymphoid, incidence","Day 10, 30 kBq",1
same,"Spleen: Hyperplasia, lymphoid, score average","Day 10, 30 kBq",1.0
same,"Spleen: Pigment, incidence","Day 10, 30 kBq",5
same,"Spleen: Pigment, score average","Day 10, 30 kBq",1.0
same,mice with relative increase of neutrophilic blasts (metamyelocytes) in peripheral blood,"Day 10, 30 kBq",one out of five
same,myelopoiesis in bone marrow smears (group value),"Day 10, 30 kBq",66%
same,"Salivary glands: Necrosis, multifocal, serous acinar cells, incidence","Day 10, 30 kBq, listed as [225Ac]Ac-SibuDAB",2
same,Bone marrow % E,"Day 10, mouse M1",30%
same,Bone marrow % M,"Day 10, mouse M1",70%
same,"Bone marrow smear, Notes","Day 10, mouse M1","More blasts, neutrophilic row"
same,Bone marrow % E,"Day 10, mouse M2",50%
same,Bone marrow % M,"Day 10, mouse M2",50%
same,Bone marrow % E,"Day 10, mouse M3",40%
same,Bone marrow % M,"Day 10, mouse M3",60%
same,"Blood smear, Notes","Day 10, mouse M4",More neutrophilic blasts (Metamyelocyte)
same,Bone marrow % E,"Day 10, mouse M4",30%
same,Bone marrow % M,"Day 10, mouse M4",70%
same,"Bone marrow smear, Notes","Day 10, mouse M4","More blasts, neutrophilic row"
same,Bone marrow % E,"Day 10, mouse M5",20%
same,Bone marrow % M,"Day 10, mouse M5",80%
same,"Bone marrow smear, Notes","Day 10, mouse M5","More blasts, neutrophilic row"
same,Albumin concentration in blood plasma,"Day 28, 30 kBq",26 ± 1 g/L
same,Blood urea nitrogen,"Day 28, 30 kBq",9.1 ± 1.1 mmol/L
same,Erythrocyte counts,"Day 28, 30 kBq",8.7 ± 0.3 × 10^12/L
same,Hematocrit,"Day 28, 30 kBq",43 ± 1%
same,Hemoglobin,"Day 28, 30 kBq",11.2 ± 0.5 g/dL
same,"Kidneys: Hyperplasia/hypertrophy, tubular, incidence","Day 28, 30 kBq",0
same,"Kidneys: Hyperplasia/hypertrophy, tubular, score average","Day 28, 30 kBq",0.0
same,"Kidneys: Hypertrophy/hyperplasia, tubular with ectasia, incidence","Day 28, 30 kBq",0
same,"Kidneys: Hypertrophy/hyperplasia, tubular with ectasia, score average","Day 28, 30 kBq",0.0
same,"Kidneys: Inflammatory cells, interstitium, incidence","Day 28, 30 kBq",1
same,"Kidneys: Inflammatory cells, interstitium, score average","Day 28, 30 kBq",1.0
same,"Kidneys: Inflammatory cells, pelvis, incidence","Day 28, 30 kBq",2
same,"Kidneys: Inflammatory cells, pelvis, score average","Day 28, 30 kBq",1.0
same,"Kidneys: Mineralization, papilla, incidence","Day 28, 30 kBq",0
same,"Kidneys: Mineralization, papilla, score average","Day 28, 30 kBq",0.0
same,"Kidneys: Tubular basophilia, incidence","Day 28, 30 kBq",0
same,"Kidneys: Tubular basophilia, score average","Day 28, 30 kBq",0.0
same,"Salivary glands: Ductal hyperplasia with inflammatory cells, incidence","Day 28, 30 kBq",0
same,"Salivary glands: Ductal hyperplasia with inflammatory cells, score average","Day 28, 30 kBq",0.0
same,"Salivary glands: Hypertrophy acinar, sublingual, incidence","Day 28, 30 kBq",1
same,"Salivary glands: Hypertrophy acinar, sublingual, score average","Day 28, 30 kBq",1.0
same,"Salivary glands: Mononuclear cell foci, incidence","Day 28, 30 kBq",3
same,"Salivary glands: Mononuclear cell foci, score average","Day 28, 30 kBq",1.0
same,"Salivary glands: Necrosis, multifocal, serous acinar cells, incidence","Day 28, 30 kBq",completely absent
same,"Salivary glands: Necrosis, multifocal, serous acinar cells, score average","Day 28, 30 kBq",0.0
same,"Salivary glands: Vacuolation, incidence","Day 28, 30 kBq",0
same,"Salivary glands: Vacuolation, score average","Day 28, 30 kBq",0.0
same,"Spleen: Extramedullary hematopoiesis, incidence","Day 28, 30 kBq",5
same,"Spleen: Extramedullary hematopoiesis, score average","Day 28, 30 kBq",1.8
same,"Spleen: Hyperplasia, lymphoid, incidence","Day 28, 30 kBq",5
same,"Spleen: Hyperplasia, lymphoid, score average","Day 28, 30 kBq",1.2
same,"Spleen: Pigment, incidence","Day 28, 30 kBq",5
same,"Spleen: Pigment, score average","Day 28, 30 kBq",2.0
same,"Salivary glands: Necrosis, multifocal, serous acinar cells, incidence","Day 28, 30 kBq, listed as [225Ac]Ac-SibuDAB",0
same,Bone marrow % E,"Day 28, mouse M1",40%
same,Bone marrow % M,"Day 28, mouse M1",60%
same,Bone marrow % E,"Day 28, mouse M2",50%
same,Bone marrow % M,"Day 28, mouse M2",50%
same,Bone marrow % E,"Day 28, mouse M3",40%
same,Bone marrow % M,"Day 28, mouse M3",60%
same,Bone marrow % E,"Day 28, mouse M4",50%
same,Bone marrow % M,"Day 28, mouse M4",50%
same,Bone marrow % E,"Day 28, mouse M5",50%
same,Bone marrow % M,"Day 28, mouse M5",50%
same,"Kidneys: Hyperplasia/hypertrophy, tubular, incidence","Day 56, 30 kBq",1
same,"Kidneys: Hyperplasia/hypertrophy, tubular, score average","Day 56, 30 kBq",1.0
same,"Kidneys: Hypertrophy/hyperplasia, tubular with ectasia, incidence","Day 56, 30 kBq",0
same,"Kidneys: Hypertrophy/hyperplasia, tubular with ectasia, score average","Day 56, 30 kBq",0.0
same,"Kidneys: Inflammatory cells, interstitium, incidence","Day 56, 30 kBq",1
same,"Kidneys: Inflammatory cells, interstitium, score average","Day 56, 30 kBq",1.0
same,"Kidneys: Inflammatory cells, pelvis, incidence","Day 56, 30 kBq",1
same,"Kidneys: Inflammatory cells, pelvis, score average","Day 56, 30 kBq",1.0
same,"Kidneys: Mineralization, papilla, incidence","Day 56, 30 kBq",0
same,"Kidneys: Mineralization, papilla, score average","Day 56, 30 kBq",0.0
same,"Kidneys: Tubular basophilia, incidence","Day 56, 30 kBq",2
same,"Kidneys: Tubular basophilia, score average","Day 56, 30 kBq",1.0
same,"Salivary glands: Ductal hyperplasia with inflammatory cells, incidence","Day 56, 30 kBq",0
same,"Salivary glands: Ductal hyperplasia with inflammatory cells, score average","Day 56, 30 kBq",0.0
same,"Salivary glands: Hypertrophy acinar, sublingual, incidence","Day 56, 30 kBq",0
same,"Salivary glands: Hypertrophy acinar, sublingual, score average","Day 56, 30 kBq",0.0
same,"Salivary glands: Mononuclear cell foci, incidence","Day 56, 30 kBq",2
same,"Salivary glands: Mononuclear cell foci, score average","Day 56, 30 kBq",1.0
same,"Salivary glands: Necrosis, multifocal, serous acinar cells, incidence","Day 56, 30 kBq",0
same,"Salivary glands: Necrosis, multifocal, serous acinar cells, score average","Day 56, 30 kBq",0.0
same,"Salivary glands: Vacuolation, incidence","Day 56, 30 kBq",0
same,"Salivary glands: Vacuolation, score average","Day 56, 30 kBq",0.0
same,"Spleen: Extramedullary hematopoiesis, incidence","Day 56, 30 kBq",5
same,"Spleen: Extramedullary hematopoiesis, score average","Day 56, 30 kBq",1.8
same,"Spleen: Hyperplasia, lymphoid, incidence","Day 56, 30 kBq",0
same,"Spleen: Hyperplasia, lymphoid, score average","Day 56, 30 kBq",0.0
same,"Spleen: Pigment, incidence","Day 56, 30 kBq",5
same,"Spleen: Pigment, score average","Day 56, 30 kBq",2.0
same,Bone marrow % E,"Day 56, mouse M1",40%
same,Bone marrow % M,"Day 56, mouse M1",60%
same,Bone marrow % E,"Day 56, mouse M2",30%
same,Bone marrow % M,"Day 56, mouse M2",70%
same,Bone marrow % E,"Day 56, mouse M3",40%
same,Bone marrow % M,"Day 56, mouse M3",60%
same,Bone marrow % E,"Day 56, mouse M4",40%
same,Bone marrow % M,"Day 56, mouse M4",60%
same,Bone marrow % E,"Day 56, mouse M5",40%
same,Bone marrow % M,"Day 56, mouse M5",60%
